In the CheMixHub viscosity set:

Test: xn = mol fraction of the nth substance listed

CCOC(C)(C)C + COCCO
viscosity [mPa·s], 101 kPa
Settings	293.15 K	298.15 K	303.15 K
x1 = 0.0501	1.598	1.452	1.327
x1 = 0.1	1.493	1.361	1.246
x1 = 0.1508	1.386	1.267	1.164
x1 = 0.2	1.291	1.183	1.089
x1 = 0.2512	1.198	1.1	1.015
x1 = 0.299	1.118	1.029	0.951
x1 = 0.3489	1.041	0.961	0.89
x1 = 0.4	0.971	0.898	0.834
x1 = 0.4503	0.909	0.842	0.784
x1 = 0.499	0.854	0.793	0.74
x1 = 0.55	0.803	0.748	0.7
x1 = 0.61	0.75	0.7	0.657
x1 = 0.6599	0.711	0.665	0.625
x1 = 0.7	0.682	0.639	0.602
x1 = 0.7511	0.649	0.61	0.575
x1 = 0.8	0.621	0.584	0.552
x1 = 0.8489	0.595	0.561	0.532
x1 = 0.9	0.571	0.54	0.512
x1 = 0.949	0.55	0.521	0.495

CCOC(=O)c1ccccc1 + COCCOCCOC
viscosity [mPa·s], 101.33 kPa
Settings	x2 = 0.1021	x2 = 0.2028	x2 = 0.3004	x2 = 0.4044	x2 = 0.5041	x2 = 0.6032	x2 = 0.7035	x2 = 0.8017	x2 = 0.9022
298.15 K	1.805	1.694	1.59	1.485	1.389	1.301	1.216	1.134	1.056
303.15 K	1.629	1.533	1.442	1.35	1.266	1.189	1.111	1.039	0.967
308.15 K	1.476	1.39	1.311	1.231	1.157	1.088	1.02	0.957	0.895
313.15 K	1.342	1.268	1.198	1.126	1.062	1	0.94	0.883	0.829
318.15 K	1.228	1.161	1.098	1.035	0.976	0.922	0.868	0.818	0.77

CCOC(=O)c1ccccc1 + COc1ccccc1
viscosity [mPa·s], 101 kPa
Settings	x1 = 0.0786	x1 = 0.1616	x1 = 0.2448	x1 = 0.3356	x1 = 0.4336	x1 = 0.5357	x1 = 0.6386	x1 = 0.7505	x1 = 0.8709
303.15 K	0.973	1.026	1.085	1.156	1.229	1.323	1.416	1.521	1.631
308.15 K	0.896	0.949	1.007	1.071	1.143	1.224	1.311	1.404	1.504
313.15 K	0.805	0.856	0.908	0.963	1.026	1.101	1.174	1.256	1.342
